From patent US5919701A, “Oligonucleotides with activity against human immunodeficiency virus” (priority 1997, dated 1999)

How the values were obtained:
[1] = test system: replication defective HIV generated by 8e5 cells; assay: p24 production by 8e5 cells (p24 capture ELISA of cell lysates); type: cell-based, HIV; human T-cell line 8e5; settings: for inhibiting p24 production (in words): summary of Table 3; for inhibition / p24 production: range over experiments
Experimental: The effect of several phosphorothioate antisense oligonucleotides on HIV replication was determined by measuring p24 (an HIV-specific polypeptide) produced by 8e5 cells. The 8e5 cell line is a human T-cell line that generates replication defective HIV (Folks et al. U.S. Pat. No. 4,752,565). The defective HIV contains a single integrated provirus that expresses all HIV proteins at levels typically observed in chronically infected cell lines except those encoded by pol. This defect is due to a single base insertion that causes a frame shift mutation in pol.
Oligonucleotides having phosphorothioate linkages were synthesized according to Bhatt supra. Synthesized oligonucleotides were purified using HPLC, extracted with ethyl acetate, ethanol precipitated, washed with 80% ethanol and suspended in sterile water to generate high concentration stock solutions that facilitated small volume addition (2-20 μl).
Phosphorothioate antisense oligonucleotides were added directly to 8e5 cultures. Sterile water and non-specific phosphorothioate oligonucleotides were utilized as controls. The cultures were harvested after 4 days, and the viable cell count and production of p24 antigen were determined. Cell lysates were prepared by spinning down cells from 2 ml wells at 1000 rpm for 10 minutes at 4° C. using a Beckman J-10, and removing the supernatant. The cells were then washed with 5 ml of Hanks balanced salt solution (Gibco) or sterile saline solution (0.9% NaCl), and spun down at 1000 rpm for 10 minutes at 4° C. using a Beckman J-10. The cells were resuspended in 300 μl of TSM (10 mM Tris-HCl pH 7.5, 150 mM NaCl, 2 MM MgCl2) with 0.5% NP-40, and incubated on ice for 5 minutes. The nuclei and cellular debris were then spun down at 2000 rpm using a Beckman J-10. The amount of p24 antigen was determined in cell lysates using a p24 capture ELISA (American Biotechnologies, Inc.).
The ELISA assay for p24 was selected as a measure of HIV replication because expression of tat and rev are required for efficient p24 production. The percentage of HIV p24 production was calculated as p24/cell production by antisense treated cells divided by p24/cell production by control treated cells. Control treated cells were treated with a random control phosphorothioate oligonucleotide (SEQ. ID. NO. 47: AGGCTTCATCACGTGGACATTGACG).

human bone marrow cells = assay: Cytotoxicity: colony formation of human bone marrow cells; type: cell-based; settings: agar medium with G-CSF, eight days in culture
Experimental: The cytotoxicity of the test oligonucleotides was determined in a system using primary human blood cells using techniques known to those of skill in the art to measure cytotoxicity of anti-neoplastic agents. Human bone marrow cells were harvested and washed in an isotonic solution, then incubated in tissue culture medium containing 0.3% (w/v) agar, 20% (v/v) fetal calf serum, and 10 ng/ml granulocyte-colony stimulating factor with varying amounts of the two test oligonucleotides. The number of colonies formed were measured after eight days in culture. The IC50 for colony formation in this experiment was 2-3 μM for SEQ. ID. NO: 18 and 20-30 μM for SEQ. ID. NO: 22.

HIV-1 (LAI) [2] = assay: Plaque assay, HeLa-CD4 cells infected with HIV-1 (LAI); type: cell-based, HIV-1; HeLa-CD4 cells; settings: HeLa-CD4, HIV-1 (LAI), plaques formed
Experimental: (§1) HeLa-CD4 cells were tested using a plaque assay as described below. Specific cells (as described in Table 4) were detached using trypsin-EDTA for 8-10 minutes at 37° C. The cells were then centrifuged at 100 rpm for 10 minutes. Cells were resuspended in 5-10 ml of maintenance medium (Dulbecco's Modified Eagle Medium ("DMEM") containing 10% fetal calf serum, […], […], and 2 mM glutamine). Cells were maintained by splitting the culture once weekly into two 75 cm^2 T-flasks at a concentration of 3×10^4 cells/ml in a total volume of […] maintenance medium.
(§2) On day 0, the cells were plated into the wells of a 24 well tissue culture plate (Falcon #3047) at a concentration of 2.4×10^4 cells per well. The cells were incubated overnight at 37° C. The next day the medium was aspirated, and 200 μl of HIV virus at a multiplicity of infection ("MOI") of 0.03 was added to each well. The plates were then incubated for 2 hours at 37° C. After the 2 hour incubation, the cells were treated with 800 μl of drug at a concentration (in DMEM) of 1.25× of the final concentration.
(§3) The treated cells were incubated for 3 days at 37° C. On day 4 the plate was fixed with 1 ml/well of 100% methanol for 15 minutes. The wells were then aspirated and 0.5 ml of 0.3% crystal violet stain was added to the wells. […] Plaques were counted using a microscope. […]

HIV-1 (LAI) [3] = assay: p24 assay, PBMC infected with HIV-1 (LAI); type: cell-based, HIV-1; PBMC
[4] = test system: HIV patient isolates (AO18); assay: Plaque assay, HeLa-CD4 cells infected with patient isolates (AO18); type: cell-based, HIV; HeLa-CD4 cells; settings: plaques formed
Experimental: as §1, §2, §3

HIV-2 (ROD) = assay: Plaque assay, HeLa-CD4 cells infected with HIV-2 (ROD); type: cell-based, HIV-2; HeLa-CD4 cells; settings: HeLa-CD4, HIV-2 (ROD), plaques formed
Experimental: as §1, §2, §3

[5] = In vivo mouse study: blood parameters, body weight and organ morphology; settings: mice, 100 mg/kg
Experimental: In vivo experiments were also performed using rodent models. These experiments focused on the potential for gross morphological changes in blood tissue upon administration of a phosphorothioate linked oligonucleotide having the nucleic acid sequence of SEQ. ID. NO: 18 (in a solution of PBS). Three mice were given the oligonucleotide at a dose of 100 mg/kg body weight. Four control mice were given PBS alone. Blood samples were taken from each animal at t=0, and at 24 hours each animal was sacrificed and the organs removed. The experimental findings with regard to blood parameters are shown in Table 5, and the results obtained upon visual inspection of the organs are shown in Table 6.

[6] = test system: HIV patient isolates (PO22); assay: Plaque assay, HeLa-CD4 cells infected with patient isolates (PO22); type: cell-based, HIV; HeLa-CD4 cells; settings: plaques formed
Experimental: as §1, §2, §3

[7] = 10 μM, Table 3 (small length oligonucleotides)
[8] = 20 μM, Table 3 (small length oligonucleotides)
[9] = 2 μM, 4 days, Table 2, relative to cells treated with random control oligonucleotide SEQ. ID. NO. 47
[10] = 10 μM, 4 days, Table 2, relative to cells treated with random control oligonucleotide SEQ. ID. NO. 47

Molecule: GCCTGTCGGG TCCC (GCCTGTCGGGTCCC; chemistry not given here) [SEQ. ID. NO. 22]
- % p24 production [1, 7]: 3%
- % p24 production [1, 8]: 31%
- inhibiting p24 production (in words) [1]: particularly effective
- IC50 (human bone marrow cells): 20000 to 30000 nM

Molecule: GGGCCTGTCGGGTCCCCTCGGG (GGGCCTGTCGGGTCCCCTCGGG; chemistry not given here) [SEQ. ID. NO. 29]
- % p24 production [1, 7]: 79%
- % p24 production [1, 8]: 58%
- inhibiting p24 production (in words) [1]: particularly effective

Molecule: GCCTATTCTGCTATGTCGACACCCAA (GCCTATTCTGCTATGTCGACACCCAA; chemistry not given here) [SEQ. ID. NO. 35]
- % p24 production [1, 9]: 56%
- % p24 production [1, 10]: 0%
- inhibition [1]: 70-100%
- p24 production [1]: 0 to 30%

Molecule: GAGCTCTTCGTCGCTGTCTCCGCTTCT (GAGCTCTTCGTCGCTGTCTCCGCTTCT; chemistry not given here) [SEQ. ID. NO. 17]
- % p24 production [1, 9]: 99%
- % p24 production [1, 10]: 56%

Molecule: Cc1cn([C@H]2C[C@H](N=[N+]=[N-])[C@@H](CO)O2)c(=O)[nH]c1=O [AZT, reference compound]
- IC50 (HIV-1 (LAI) [2]; Human immunodeficiency virus 1): 7 to 20 nM
- IC50 (HIV-1 (LAI) [3]; Human immunodeficiency virus 1): 3 nM

Molecule: CTGTCGGGTC CCCTCGGG (CTGTCGGGTCCCCTCGGG; chemistry not given here) [SEQ. ID. NO. 26]
- % p24 production [1, 8]: 44%
- inhibiting p24 production (in words) [1]: particularly effective

Molecule: ATTGGTACAAGCAGTTTTAGGCT (ATTGGTACAAGCAGTTTTAGGCT; chemistry not given here) [SEQ. ID. NO. 31]
- % p24 production [1, 9]: 100%
- % p24 production [1, 10]: 15%

Molecule: CTTCGGGCCTGTCGGGTCCCCTCGGG (CTTCGGGCCTGTCGGGTCCCCTCGGG; chemistry not given here) [SEQ. ID. NO. 18]
- IC50 (HIV-1 (LAI) [2]): 200 nM
- % p24 production [1, 9]: 55%
- % p24 production [1, 10]: 0%
- inhibition [1]: 70-100%
- p24 production [1]: 0 to 30%
- IC50 ([4]; AZT Resistant): 55 nM
- IC50 ([4]; AZT Sensitive): 80 nM
- IC50 (human bone marrow cells): 2000 to 3000 nM
- IC50 (HIV-1 (LAI) [3]): 120 nM
- IC50 (HIV-2 (ROD)): 18 nM
- HGB ([5]; 0 hr): 16.0 ± 0.2 g/dL
- PLT ([5]; 0 hr): 111.8 ± 2.7 ×10^4 /μl
- RBC ([5]; 0 hr): 1032.3 ± 8.1 ×10^4 /μl
- WBC ([5]; 0 hr): 94.7 ± 18.2 ×10^2 /μl
- Body Weight ([5]; 24 hours): Unchanged
- Morphological findings, Bone Marrow ([5]; 24 hours, visual inspection): Normal
- Morphological findings, Heart ([5]; 24 hours, visual inspection): Normal
- Morphological findings, Kidney ([5]; 24 hours, visual inspection): Normal
- Morphological findings, Liver ([5]; 24 hours, visual inspection): Normal
- Morphological findings, Spleen ([5]; 24 hours, visual inspection): Slight Splenomegaly
- Morphological findings, Thymus ([5]; 24 hours, visual inspection): Normal
- HGB ([5]; 24 hr): 15.3 ± 0.5 g/dL
- PLT ([5]; 24 hr): 99.4 ± 0.9 ×10^4 /μl
- RBC ([5]; 24 hr): 990.3 ± 34.3 ×10^4 /μl
- WBC ([5]; 24 hr): 79.3 ± 15.3 ×10^2 /μl
- IC50 ([6]; AZT Resistant): 18 nM
- IC50 ([6]; AZT Sensitive): 45 nM

Molecule: TTGGGAGGTG GGTTGCTTTG (TTGGGAGGTGGGTTGCTTTG; chemistry not given here) [SEQ. ID. NO. 14]
- % p24 production [1, 9]: 103%
- % p24 production [1, 10]: 66%

Molecule: GCCTGTCGGG TCCT (GCCTGTCGGGTCCT; chemistry not given here) [SEQ. ID. NO. 20]
- % p24 production [1, 7]: 55%
- % p24 production [1, 8]: 42%
- inhibiting p24 production (in words) [1]: particularly effective

Molecule: CGGGCCTGTCGGGTCCCCTCGGGA (CGGGCCTGTCGGGTCCCCTCGGGA; chemistry not given here) [SEQ. ID. NO. 36]
- % p24 production [1, 9]: 71%
- % p24 production [1, 10]: 89%

Molecule: ATTCTGCTATGTCGACACCCAA (ATTCTGCTATGTCGACACCCAA; chemistry not given here) [SEQ. ID. NO. 46]
- % p24 production [1, 7]: 87%
- % p24 production [1, 8]: 81%
- inhibiting p24 production (in words) [1]: effective

Molecule: GCTTCTTCCTGCCATAGGAGA (GCTTCTTCCTGCCATAGGAGA; chemistry not given here) [SEQ. ID. NO. 33]
- % p24 production [1, 9]: 109%
- % p24 production [1, 10]: 74%
